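Cells were grown in 96-well plates and exposed to each compound for 48 hours at five concentrations; endpoints were interpolated linearly between bracketing concentrations, or set to the highest concentration if not reached. The concentration for 50% growth inhibition is given as GI50. TGI: concentration producing complete growth inhibition.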
Tests used:
Experiment in all cases: NCI-60 cell line screen, 48 h; in the data active means GI50 below about 0.43 µM; inactive means the rest
786-0 renal = test system: 786-0 renal
A498 renal = test system: A498 renal
A549 NSCLC = test system: A549 NSCLC
ACHN renal = test system: ACHN renal
BT-549 breast = test system: BT-549 breast
CAKI-1 renal = test system: CAKI-1 renal
CCRF-CEM leukemia = test system: CCRF-CEM leukemia
COLO 205 colon = test system: COLO 205 colon
DU-145 prostate = test system: DU-145 prostate
EKVX NSCLC = test system: EKVX NSCLC
HCC-2998 colon = test system: HCC-2998 colon
HCT-116 colon = test system: HCT-116 colon
HCT-15 colon = test system: HCT-15 colon
HL-60(TB) leukemia = test system: HL-60(TB) leukemia
HOP-62 NSCLC = test system: HOP-62 NSCLC
HOP-92 NSCLC = test system: HOP-92 NSCLC
HS 578T breast = test system: HS 578T breast
HT29 colon = test system: HT29 colon
IGROV1 ovarian = test system: IGROV1 ovarian
K-562 leukemia = test system: K-562 leukemia
KM12 colon = test system: KM12 colon
LOX IMVI melanoma = test system: LOX IMVI melanoma
M14 melanoma = test system: M14 melanoma
MALME-3M melanoma = test system: MALME-3M melanoma
MCF7 breast = test system: MCF7 breast
MDA-MB-231 breast = test system: MDA-MB-231 breast
MDA-MB-435 = test system: MDA-MB-435
MOLT-4 leukemia = test system: MOLT-4 leukemia
NCI-H226 lung = test system: NCI-H226 lung
NCI-H23 lung = test system: NCI-H23 lung
NCI-H460 lung = test system: NCI-H460 lung
NCI-H522 lung = test system: NCI-H522 lung
NCI/ADR-RES ovarian = test system: NCI/ADR-RES ovarian
OVCAR-3 ovarian = test system: OVCAR-3 ovarian
OVCAR-4 ovarian = test system: OVCAR-4 ovarian
OVCAR-5 ovarian = test system: OVCAR-5 ovarian
OVCAR-8 ovarian = test system: OVCAR-8 ovarian
PC-3 prostate = test system: PC-3 prostate
RPMI-8226 leukemia = test system: RPMI-8226 leukemia
RXF 393 renal = test system: RXF 393 renal
SF-268 CNS = test system: SF-268 CNS
SF-295 CNS = test system: SF-295 CNS
SF-539 CNS = test system: SF-539 CNS
SK-MEL-2 melanoma = test system: SK-MEL-2 melanoma
SK-MEL-28 melanoma = test system: SK-MEL-28 melanoma
SK-MEL-5 melanoma = test system: SK-MEL-5 melanoma
SK-OV-3 ovarian = test system: SK-OV-3 ovarian
SN12C renal = test system: SN12C renal
SNB-19 CNS = test system: SNB-19 CNS
SNB-75 CNS = test system: SNB-75 CNS
SR leukemia = test system: SR leukemia
SW-620 colon = test system: SW-620 colon
T-47D breast = test system: T-47D breast
TK-10 renal = test system: TK-10 renal
U251 CNS = test system: U251 CNS
UACC-257 melanoma = test system: UACC-257 melanoma
UACC-62 melanoma = test system: UACC-62 melanoma
UO-31 renal = test system: UO-31 renal

Cc1cc(-c2ccc(C3C(C#N)=C(N)Oc4c3c(=O)oc3ccccc43)cc2)cnc1F (stereo unspecified)
74.1 µM: TGI (HOP-92 NSCLC)
77.3 µM: TGI (RXF 393 renal)
inactive: GI50 (786-0 renal) 50.8 µM | GI50 (A498 renal) > 100 µM | GI50 (A549 NSCLC) > 100 µM | GI50 (ACHN renal) 55.9 µM | GI50 (BT-549 breast) 23.9 µM | GI50 (CAKI-1 renal) 41 µM | GI50 (CCRF-CEM leukemia) 0.535 µM | GI50 (COLO 205 colon) > 100 µM | GI50 (DU-145 prostate) 49 µM | GI50 (EKVX NSCLC) 71.3 µM | GI50 (HCC-2998 colon) 89 µM | GI50 (HCT-116 colon) 29.4 µM | GI50 (HCT-15 colon) 42.3 µM | GI50 (HL-60(TB) leukemia) 43.4 µM | GI50 (HOP-62 NSCLC) 88.5 µM | GI50 (HOP-92 NSCLC) 1.63 µM | GI50 (HS 578T breast) 67.8 µM | GI50 (HT29 colon) 43.4 µM | GI50 (IGROV1 ovarian) > 100 µM | GI50 (K-562 leukemia) 35 µM | GI50 (KM12 colon) > 100 µM | GI50 (LOX IMVI melanoma) 44.4 µM | GI50 (M14 melanoma) > 100 µM | GI50 (MALME-3M melanoma) > 100 µM | GI50 (MCF7 breast) 48.9 µM | GI50 (MDA-MB-231 breast) > 100 µM | GI50 (MDA-MB-435) > 100 µM | GI50 (MOLT-4 leukemia) 27.8 µM | GI50 (NCI-H226 lung) 34.2 µM | GI50 (NCI-H23 lung) 38.7 µM | GI50 (NCI-H460 lung) > 100 µM | GI50 (NCI-H522 lung) 22.5 µM | GI50 (NCI/ADR-RES ovarian) 68.7 µM | GI50 (OVCAR-3 ovarian) 33.9 µM | GI50 (OVCAR-4 ovarian) 39.3 µM | GI50 (OVCAR-5 ovarian) 85.9 µM | GI50 (OVCAR-8 ovarian) > 100 µM | GI50 (PC-3 prostate) 40.2 µM | GI50 (RPMI-8226 leukemia) 38.4 µM | GI50 (RXF 393 renal) 12.8 µM | GI50 (SF-268 CNS) 64.9 µM | GI50 (SF-295 CNS) 88 µM | GI50 (SF-539 CNS) 46 µM | GI50 (SK-MEL-2 melanoma) 35.3 µM | GI50 (SK-MEL-28 melanoma) > 100 µM | GI50 (SK-MEL-5 melanoma) 81 µM | GI50 (SK-OV-3 ovarian) 59.8 µM | GI50 (SN12C renal) 81.2 µM | GI50 (SNB-19 CNS) > 100 µM | GI50 (SNB-75 CNS) 22.4 µM | GI50 (SR leukemia) 33.6 µM | GI50 (SW-620 colon) 85.3 µM | GI50 (T-47D breast) 29.5 µM | GI50 (TK-10 renal) 39.3 µM | GI50 (U251 CNS) > 100 µM | GI50 (UACC-257 melanoma) > 100 µM | GI50 (UACC-62 melanoma) 43.8 µM | GI50 (UO-31 renal) 26.9 µM
> 100 µM: TGI (786-0 renal) | TGI (A498 renal) | TGI (A549 NSCLC) | TGI (ACHN renal) | TGI (BT-549 breast) | TGI (CAKI-1 renal) | TGI (CCRF-CEM leukemia) | TGI (COLO 205 colon) | TGI (DU-145 prostate) | TGI (EKVX NSCLC) | TGI (HCC-2998 colon) | TGI (HCT-116 colon) | TGI (HCT-15 colon) | TGI (HL-60(TB) leukemia) | TGI (HOP-62 NSCLC) | TGI (HS 578T breast) | TGI (HT29 colon) | TGI (IGROV1 ovarian) | TGI (K-562 leukemia) | TGI (KM12 colon) | TGI (LOX IMVI melanoma) | TGI (M14 melanoma) | TGI (MALME-3M melanoma) | TGI (MCF7 breast) | TGI (MDA-MB-231 breast) | TGI (MDA-MB-435) | TGI (MOLT-4 leukemia) | TGI (NCI-H226 lung) | TGI (NCI-H23 lung) | TGI (NCI-H460 lung) | TGI (NCI-H522 lung) | TGI (NCI/ADR-RES ovarian) | TGI (OVCAR-3 ovarian) | TGI (OVCAR-4 ovarian) | TGI (OVCAR-5 ovarian) | TGI (OVCAR-8 ovarian) | TGI (PC-3 prostate) | TGI (RPMI-8226 leukemia) | TGI (SF-268 CNS) | TGI (SF-295 CNS) | TGI (SF-539 CNS) | TGI (SK-MEL-2 melanoma) | TGI (SK-MEL-28 melanoma) | TGI (SK-MEL-5 melanoma) | TGI (SK-OV-3 ovarian) | TGI (SN12C renal) | TGI (SNB-19 CNS) | TGI (SNB-75 CNS) | TGI (SR leukemia) | TGI (SW-620 colon) | TGI (T-47D breast) | TGI (TK-10 renal) | TGI (U251 CNS) | TGI (UACC-257 melanoma) | TGI (UACC-62 melanoma) | TGI (UO-31 renal)

— PubChem BioAssay (NCI)
